We go through 24 molecules from patent US20180214428A1, “3-(1H-INDOL-2-YL)-1H-PYRAZOLO[3,4-B]PYRIDINES AND THERAPEUTIC USES THEREOF” (Samumed, LLC, priority 2015, published 2018).

One may read the pEC50 as −log10 of the EC50, conventionally taken in molar units. High values mean a low EC50, low ones a high EC50. Usually inhibition stands for the share of the control response that was lost under treatment.

pEC50: −log10 of the molar value. A value given as a limit tells only on which side of the number the result lay.

One test has as its system SW480 colon cancer cells. Kind of test: Cell viability assay (CellTiter-Blue) in SW480 colon cancer cells. The format is cell-based, human. Conditions: Homo sapiens; for pEC50: 96 h, four days, CellTiter-Blue; for inhibition at 10 µM: given for EC50 of >10 μM, read-out: percent inhibition at 10 μM. In a few lines: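 SW480 colon cancer cells (~2×10^3/well) exposed to 8-point 1:3 dilutions from 10 μM to 0.0045 μM for four days at 37 °C/5% CO2. Viability read by resazurin (CellTiter-Blue) fluorescence after ~3 h, Ex 560/Em 590 nm. EC50 from non-linear regression; percent inhibition at 10 μM given when EC50 >10 μM.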
In general terms: Alamar Blue is a resazurin reagent that responds to reducing activity.

Test [1] deals with primary human fibroblasts derived from IPF patients (LL29 cells). Kind of test: Inhibition of the fibrotic process: αSMA staining in TGF-β1 treated LL29 fibroblasts. The format is cell-based. Conditions: Homo sapiens, Fibroblast; for pEC50: 96 h, TGF-β1 20 ng/mL, 4 days, % αSMA positive cells; for inhibition at 10 µM: given for EC50 of >10 μM, TGF-β1, αSMA, read-out: percent inhibition at 10 μM. In a few lines:
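IPF patient-derived LL29 fibroblasts in 1% FBS medium got compound (11-point, 10 μM to 1.87 nM, 0.1% DMSO) plus TGF-β1 20 ng/mL, 4 days at 37° C. αSMA-positive live cells (SYTOX-excluded) were imaged, normalized to TGF-β1 controls and fitted for EC50; % inhibition at 10 μM given when EC50 >10 μM.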

Turning to `O=C(Nc1cncc(-c2cnc3[nH]nc(-c4cc5c(-c6ccc(F)cc6)cccc5[nH]4)c3c2)c1)c1ccccc1` [Compound 32, N-(5-(3-(4-(4-Fluorophenyl)-1H-indol-2-yl)-1H-pyrazolo[3,4-b]pyridin-5-yl)pyridin-3-yl)benzamide], in the test with SW480 colon cancer cells, the pEC50 was less than 5.00 and the inhibition at 10 µM amounted to 32.5%. The molecule further showed a pEC50 in test [1] of 5.31.

As for `Nc1cncc(-c2cnc3[nH]nc(-c4cc5c(-c6ccccc6F)cccc5[nH]4)c3c2)c1` [Compound 49, 5-(3-(4-(2-Fluorophenyl)-1H-indol-2-yl)-1H-pyrazolo[3,4-b]pyridin-5-yl) pyridin-3-amine], the results for the pEC50 (with SW480 colon cancer cells; in test [1]) were 6.23 and 6.76, respectively.

Consider `CCCCC(=O)Nc1cncc(-c2cnc3[nH]nc(-c4cc5c(-c6ccccn6)cccc5[nH]4)c3c2)c1` [Compound 136, N-(5-(3-(4-(Pyridin-2-yl)-1H-indol-2-yl)-1H-pyrazolo[3,4-b]pyridin-5-yl)pyridin-3-yl)pentanamide], for which the values for the pEC50 (in the test with SW480 colon cancer cells; in test [1]) were 5.33 and 5.57, respectively.

Take `CC(C)(C)C(=O)Nc1cncc(-c2cnc3[nH]nc(-c4cc5c(-c6ccoc6)cccc5[nH]4)c3c2)c1` [Compound 290, N-(5-(3-(4-(Furan-3-yl)-1H-indol-2-yl)-1H-pyrazolo[3,4-b]pyridin-5-yl)pyridin-3-yl)pivalamide]: in the test with SW480 colon cancer cells, the pEC50 was less than 5.00 and the inhibition at 10 µM was 35.1%. In test [1], the pEC50 is less than 5.00 and the inhibition at 10 µM turned out to be 43.3%.

Regarding `CC(C)CC(=O)Nc1cncc(-c2cnc3[nH]nc(-c4cc5c(-c6cc(F)cc(NCCN(C)C)c6)cccc5[nH]4)c3c2)c1` [Compound 424, N-(5-(3-(4-(3-((2-(Dimethylamino)ethyl)amino)-5-fluorophenyl)-1H-indol-2-yl)-1H-pyrazolo[3,4-b]pyridin-5-yl)pyridin-3-yl)-3-methylbutanamide], the figures for the pEC50 (with SW480 colon cancer cells; in test [1]) were 6.42 and 6.46, respectively.

`CS(=O)(=O)NCc1cc(F)cc(-c2cccc3[nH]c(-c4n[nH]c5ncc(-c6cncc(N)c6)cc45)cc23)c1` [Compound 453, N-(3-(2-(5-(5-Aminopyridin-3-yl)-1H-pyrazolo[3,4-b]pyridin-3-yl)-1H-indol-4-yl)-5-fluorobenzyl)methanesulfonamide]: the pEC50 in the test on SW480 colon cancer cells was 6.00; in test [1] it was 6.43.

As for `CC(C)(C)CC(=O)Nc1cncc(-c2cnc3[nH]nc(-c4cc5c(-c6ccccn6)cccc5[nH]4)c3c2)c1` [Compound 133, 3,3-Dimethyl-N-(5-(3-(4-(pyridin-2-yl)-1H-indol-2-yl)-1H-pyrazolo[3,4-b]pyridin-5-yl)pyridin-3-yl)butanamide], the pEC50 in the test with SW480 colon cancer cells is 5.49; in test [1] it was 6.12.

`CC(C)(C)C(=O)Nc1cncc(-c2cnc3[nH]nc(-c4cc5c(-c6ccc(F)cc6)cccc5[nH]4)c3c2)c1` [Compound 30, N-(5-(3-(4-(4-Fluorophenyl)-1H-indol-2-yl)-1H-pyrazolo[3,4-b]pyridin-5-yl)pyridin-3-yl)pivalamide]: the pEC50 with SW480 colon cancer cells is less than 5.00; in test [1], 5.38. In addition, the inhibition at 10 µM in the test with SW480 colon cancer cells was 13.9%.

Take `CN(C)c1cncc(-c2cnc3[nH]nc(-c4cc5c(N6CCCCC6)cccc5[nH]4)c3c2)c1` [Compound 151, N,N-Dimethyl-5-(3-(4-(piperidin-1-yl)-1H-indol-2-yl)-1H-pyrazolo[3,4-b]pyridin-5-yl)pyridin-3-amine]: the pEC50 in the test on SW480 colon cancer cells was 5.28; in test [1], 5.79.

`CCNCc1cncc(-c2cnc3[nH]nc(-c4cc5c(-c6ccccn6)cccc5[nH]4)c3c2)c1` [Compound 124, N-((5-(3-(4-(Pyridin-2-yl)-1H-indol-2-yl)-1H-pyrazolo[3,4-b]pyridin-5-yl)pyridin-3-yl)methyl)ethanamine]: the pEC50 in the test with SW480 colon cancer cells was 5.31; in test [1], 5.74.

As for `CCNCc1cncc(-c2cnc3[nH]nc(-c4cc5c(-c6cc(F)cc(NCCN(C)C)c6)cccc5[nH]4)c3c2)c1` [Compound 428, N^1-(3-(2-(5-(5-((Ethylamino)methyl)pyridin-3-yl)-1H-pyrazolo[3,4-b]pyridin-3-yl)-1H-indol-4-yl)-5-fluorophenyl)-N^2,N^2-dimethylethane-1,2-diamine], the negative logarithm of the EC50 (pEC50) in the test on SW480 colon cancer cells was 6.12; in test [1], 5.90.

For the molecule `Fc1cccc(-c2cccc3[nH]c(-c4n[nH]c5ncc(-c6cncc(OCc7ccccc7)c6)cc45)cc23)c1` [Compound 520, 5-(5-(Benzyloxy)pyridin-3-yl)-3-(4-(3-fluorophenyl)-1H-indol-2-yl)-1H-pyrazolo[3,4-b]pyridine], in the test on SW480 colon cancer cells, the pEC50 is less than 5.00 and the inhibition at 10 µM came out at 13.3%. The pEC50 in test [1] is 5.01.

`FC1(F)CCN(Cc2cncc(-c3cnc4[nH]nc(-c5cc6ncccc6[nH]5)c4c3)c2)C1` [Compound 504, 5-(5-((3,3-Difluoropyrrolidin-1-yl)methyl)pyridin-3-yl)-3-(1H-pyrrolo[3,2-b]pyridin-2-yl)-1H-pyrazolo[3,4-b]pyridine] gave a pEC50 in the test on SW480 colon cancer cells of 6.95. Further, in test [1], the pEC50 was less than 5.00 and the inhibition at 10 µM was 14.8%.

As to `FC1(F)CCN(Cc2cncc(-c3cnc4[nH]nc(-c5cc6c(-c7ccncc7)cccc6[nH]5)c4c3)c2)C1` [Compound 118, 5-(5-((3,3-Difluoropyrrolidin-1-yl)methyl)pyridin-3-yl)-3-(4-(pyridin-4-yl)-1H-indol-2-yl)-1H-pyrazolo[3,4-b]pyridine], the pEC50 in the test on SW480 colon cancer cells was 5.38; in test [1], 6.12.

Consider `CCCCC(=O)Nc1cncc(-c2cnc3[nH]nc(-c4cc5c(N6CCCCC6)cccc5[nH]4)c3c2)c1` [Compound 163, N-(5-(3-(4-(Piperidin-1-yl)-1H-indol-2-yl)-1H-pyrazolo[3,4-b]pyridin-5-yl)pyridin-3-yl)pentanamide], for which, in the test on SW480 colon cancer cells, the pEC50 was less than 5.00 and the inhibition at 10 µM came out at 38%. For the same molecule, the pEC50 in test [1] was 5.09.

On to `c1ccc(CNCc2cncc(-c3cnc4[nH]nc(-c5cc6c(-c7ccncc7)cccc6[nH]5)c4c3)c2)cc1` [Compound 116, N-Benzyl-1-(5-(3-(4-(pyridin-4-yl)-1H-indol-2-yl)-1H-pyrazolo[3,4-b]pyridin-5-yl)pyridin-3-yl)methanamine], for which the pEC50 in the test on SW480 colon cancer cells was 5.44; in test [1] it was 5.60.

As to `c1ccc(COc2cncc(-c3cnc4[nH]nc(-c5cc6ncccc6[nH]5)c4c3)c2)cc1` [Compound 1006, 5-(5-(Benzyloxy)pyridin-3-yl)-3-(1H-pyrrolo[3,2-b]pyridin-2-yl)-1H-pyrazolo[3,4-b]pyridine], the pEC50 in the test on SW480 colon cancer cells was 5.84. In addition, in test [1], the pEC50 was less than 5.00 and the inhibition at 10 µM worked out at 24.8%.

For the molecule `Cc1ccncc1-c1cnc2[nH]nc(-c3cc4c(-c5ccc(F)cc5)cccc4[nH]3)c2c1` [Compound 27, 3-(4-(4-Fluorophenyl)-1H-indol-2-yl)-5-(4-methylpyridin-3-yl)-1H-pyrazolo[3,4-b]pyridine], in the test on SW480 colon cancer cells, the pEC50 was less than 5.00 and the inhibition at 10 µM came out at 13.9%. In addition, in test [1], the pEC50 was 5.79.

With `Fc1ccccc1-c1cccc2[nH]c(-c3n[nH]c4ncc(C5CCNCC5)cc34)cc12` [Compound 539, 3-(4-(2-Fluorophenyl)-1H-indol-2-yl)-5-(piperidin-4-yl)-1H-pyrazolo[3,4-b]pyridine], in the test on SW480 colon cancer cells, the pEC50 is less than 5.00 and the inhibition at 10 µM came to 51.5%. Also, the pEC50 in test [1] is 5.29.

For `Fc1cccc(-c2cccc3[nH]c(-c4n[nH]c5ncc(-c6ccncc6)cc45)cc23)c1` [Compound 15, 3-(4-(3-Fluorophenyl)-1H-indol-2-yl)-5-(pyridin-4-yl)-1H-pyrazolo[3,4-b]pyridine], in the test on SW480 colon cancer cells, the pEC50 was less than 5.00 and the inhibition at 10 µM amounted to 31.5%. The same molecule gave a pEC50 in test [1] of 5.77.

For `CN(C)CCOc1cncc(-c2cnc3[nH]nc(-c4cc5c(-c6cccnc6)cccc5[nH]4)c3c2)c1` [Compound 565, N,N-Dimethyl-2-((5-(3-(4-(pyridin-3-yl)-1H-indol-2-yl)-1H-pyrazolo[3,4-b]pyridin-5-yl)pyridin-3-yl)oxy)ethan-1-amine], the pEC50 in the test on SW480 colon cancer cells was 5.42; in test [1], 5.71.

Consider `c1ccc2[nH]c(-c3n[nH]c4ncc(-c5cncc(CN6CCCC6)c5)cc34)cc2c1` [Compound 240, 3-(1H-Indol-2-yl)-5-(5-(pyrrolidin-1-ylmethyl)pyridin-3-yl)-1H-pyrazolo[3,4-b]pyridine], for which the pEC50 in the test with SW480 colon cancer cells was 5.03; in test [1], 6.07.

Take `Fc1cccc(-c2cccc3[nH]c(-c4n[nH]c5ncc(-c6cccnc6)cc45)cc23)c1` [Compound 2, 3-(4-(3-Fluorophenyl)-1H-indol-2-yl)-5-(pyridin-3-yl)-1H-pyrazolo[3,4-b]pyridine]: the results for the pEC50 (in the test with SW480 colon cancer cells; in test [1]) were less than 5.00 and 5.84, respectively. Also, in the test with SW480 colon cancer cells, the inhibition at 10 µM was found to be 4%.

Consider `c1ccc(CNCc2cncc(-c3cnc4[nH]nc(-c5cc6ncccc6[nH]5)c4c3)c2)cc1` [Compound 502, 1-(5-(3-(1H-Pyrrolo[3,2-b]pyridin-2-yl)-1H-pyrazolo[3,4-b]pyridin-5-yl)pyridin-3-yl)-N-benzylmethanamine], for which, in the test with SW480 colon cancer cells, the pEC50 is less than 5.00 and the inhibition at 10 µM worked out at 9.8%. The molecule further gave a pEC50 in test [1] of 5.51.
